Data on four compounds can be found in patent US11090351B2, “Whitening agent” (KAO CORPORATION, priority 2016, dated 2021).

Like-named read-outs stand apart in the source and are kept apart here.

The test system of series [1] is B16 melanoma cells. Kind of series: Inhibition of melanogenesis in skin melanocytes (relative amount of extracellular melanin). Format: cell-based. Particulars: Mus musculus. The protocol: (§1) B16 melanoma cells (DS pharma Biomedical) were used as skin melanocytes. The B16 melanoma cells were cultured in a CO2 incubator (37° C., 5% CO2) in 10 cm dishes containing the DMEM medium supplemented with 10% FBS. A cell suspension at 5.0×10^4 cells/mL was prepared from the cultured cells. 998 μL aliquots of the cell suspension were dispensed into 24 well plates and cultured in a CO2 incubator (37° C., 5% CO2) overnight. Subsequently, 2 μL of the DMSO solution of the methanol extract from Syzygium polyanthum prepared in Production Example 3 was added to each well (the final concentrations of the extract: 25 and 50 μg/mL) and the mixtures were further cultured for 72 hours. Arbutin (730 μM) was used instead of the extract as a positive control. DMSO was used as control.
The supernatants of the cultures prepared in (1) were collected, 200 μL each was transferred into a 96 well plate, and then the absorbance was measured at 510 nm. The relative amount of extracellular melanin was calculated by determining the relative value to the control.
(§2) The assay for tyrosinase activity was conducted in a procedure similar to that in Example 1 (3) using Compounds 1-3 as samples. In the tyrosinase activity assay, the final concentrations of each compound were adjusted to 100, 50, 25, and 12.5 mM and IC50 was calculated. Moreover, tests for melanogenesis inhibiting activity and for cytotoxicity were conducted in procedures similar to those in Example 2. The relative amount of extracellular melanin and the relative cell survival rate of skin melanocytes to which Compounds 1-3 were added were measured. The result of the tyrosinase activity assay is illustrated in Table 5 and the results of the measurements of the relative amount of extracellular melanin and the relative cell survival rate are illustrated in Table 6.

Series [2] concerns B16 melanoma cells. Kind of series: Cytotoxicity test (MTT assay), relative cell survival rate. Format: cell-based. The protocol: as §1
The MTT assay solution was prepared by dissolving 50 mg of Thiazolyl Blue Tetrazolium Bromide (SIGMA) in 10 mL of PBS (−). 50 μL of the MTT assay solution was added to each culture prepared in (1) and reacted for 4 hours. Then, 1 mL of isopropanol for MTT was added to each culture and the plate was covered with aluminum foil and allowed for reaction at room temperature for 2 hours for the reaction. After the reaction, the total amount was collected and centrifuged (1.45×10^3 rpm, 1 min), then 150 μL each of the supernatants was transferred into a 96 well plate, and the absorbance was measured at 590 nm. The relative cell survival rate (cytotoxicity) was calculated by determining the relative value to the control.
as §2
Background: Formazan colour is commonly taken as a measure of viable cells.

Series [3] addresses mushroom tyrosinase. Description: Tyrosinase activity assay (methanol extract, fractions, Compounds 1-3). In kind it is biochemical. Particulars: Table 5. As for the experimental part: 1 mg of methanol extract from Syzygium polyanthum prepared in Production Example 3 was dissolved in 50 μL of DMSO and 550 μL of a buffer (50 mM solution of disodium hydrogen phosphate, pH 6.5). This extract solution was transferred in a 96 well plate so that the final concentrations of extract became 500, 250, 125, 62.5, 31.25, 15.625, 7.8125 and 0 μg/mL and diluted to 60 μL with the buffer. 30 μL of the tyrosinase solution (a buffered solution of 1 mg/16 mL mushroom tyrosinase (SIGMA), pH 6.5) and 110 μL of the substrate solution (2 mM L-tyrosine or 12 mM L-DOPA) were added to each well of the 96 well plate.
Each fraction was dissolved in 600 μL of DMSO and added to 96-well plates to the final concentrations of 50, 25 and 12.5 μg/mL.
In the tyrosinase activity assay, the final concentrations of each compound were adjusted to 100, 50, 25, and 12.5 mM and IC50 was calculated. […] The result of the tyrosinase activity assay is illustrated in Table 5 and the results of the measurements of the relative amount of extracellular melanin and the relative cell survival rate are illustrated in Table 6.

[4] abbreviates: substrate L-DOPA, read-out: IC50 (μM) DOPA.
The mark [5] stands for this setting: substrate L-tyrosine, read-out: IC50 (μM) Tyrosine.

In the case of `OC[C@H]1O[C@@H](Oc2ccc(O)cc2)[C@H](O)[C@@H](O)[C@@H]1O` [Arbutin, reference compound], the activity at 730 µM in series [1] (72 hours, relative to DMSO control, Table 3) stood at 21.3%; in series [1] (Table 6), 32.7%. Besides, the “Cell Viability (%)” value is 99% in series [2] (730 μM, 72 hours, MTT, relative to control, Table 3) and 107.6% in series [2] (730 μM, Table 6).

What is called IC50 is the point on the concentration scale where inhibition reaches its midpoint. Consider `CCCCCC(=O)c1cc(O)c(C)c(O)c1O` [Compound 1, 1-(2,3,5-Trihydroxy-4-methylphenyl)hexane-1-one], for which the activity at 100 µM in series [1] came out at 78.2%. Also, in series [1] (200 μM), the activity at 200 µM is 13.6%. The figures for the “Cell Viability (%)” value in series [2] (100 μM) and in series [2] (200 μM) were 73.3% and 64.9%, respectively. In addition, the concentration for half-maximal inhibition (IC50) amounted to 291 µM in series [3] (setting [4]) and 125 µM in series [3] (setting [5]).

With `CCCCCCCC(=O)c1cc(O)c(C)c(O)c1O` [Compound 2, 1-(2,3,5-Trihydroxy-4-methylphenyl)octane-1-one], the activity at 25 µM in series [1] turned out to be 99%. In series [1], the activity at 50 µM is 13.5%. The “Cell Viability (%)” value in series [2] (25 μM) is given as 95.0%; in series [2] (50 μM) it was 87.4%. Also, the 50% inhibitory concentration (IC50) was 616 µM in series [3] (setting [4]) and 481 µM in series [3] (setting [5]).

Regarding `CCCCC/C=C/CCC(=O)c1cc(O)c(C)c(O)c1O` [Compound 3, (4E)-1-(2,3,5-Trihydroxy-4-methylphenyl)dec-4-en-1-one], the activity at 25 µM in series [1] was 107%. For the same compound, the activity at 50 µM in series [1] worked out at 27.2%. Moreover, the activity at 75 µM in series [1] (75 μM) was determined as 9.7%. In addition, in series [1], the activity at 100 µM was 11.4%. Moreover, the “Cell Viability (%)” value in series [2] (25 μM) turned out to be 94.3%; in series [2] (50 μM), 99.8%; in series [2] (75 μM), 92.5%; in series [2] (100 μM), 72.9%. The 50% inhibitory concentration (IC50) is 489 µM in series [3] (setting [4]) and 84 µM in series [3] (setting [5]).
